# Results published in ChEMBL document CHEMBL1135099, “Synthesis and antinephritic activities of quinoline-3-carboxamides and related compounds” (2002).
# Active and inactive are the calls of the source. No cut-off for these calls is given here.
# Experiments:
# Mus musculus [1] = experiment: Percent inhibition of proteinuria in mice, perorally dose of 32 mg/kg; format: functional; details: route oral
# Mus musculus [2] = experiment: Percent inhibition of proteinuria by compound dose of 100 mg/kg given perorally to murine in chronic graft-versus-host-disease test; format: functional; details: route oral
# Mus musculus [3] = experiment: Percent inhibition of anti-DNA antibody was evaluated by ELISA technique as a measure of auto-immune disease after injection of compound dose of 0.1 mg/kg in MRL/1 mice; format: functional
# Mus musculus [4] = experiment: Percent inhibition of anti-DNA antibody was evaluated by ELISA technique as a measure of auto-immune disease after injection of compound dose of 0.1 mg/kg in murine; format: functional
# Mus musculus [5] = experiment: Percent inhibition of anti-DNA antibody was evaluated by ELISA technique as a measure of auto-immune disease after injection of compound dose of 0.32 mg/kg in MRL/1 mice; format: functional
# Mus musculus [6] = experiment: Percent inhibition of anti-DNA antibody was evaluated by ELISA technique as a measure of auto-immune disease after injection of compound dose of 1 mg/kg in MRL/1 mice; format: functional
# Mus musculus [7] = experiment: Percent inhibition of anti-DNA antibody was evaluated by ELISA technique as a measure of auto-immune disease after injection of compound dose of 1 mg/kg in murine; format: functional
# Mus musculus [8] = experiment: Percent inhibition of anti-DNA antibody was evaluated by ELISA technique as a measure of auto-immune disease after injection of compound dose of 10 mg/kg in MRL/1 mice; format: functional
# Mus musculus [9] = experiment: Percent inhibition of anti-DNA antibody was evaluated by ELISA technique as a measure of auto-immune disease after injection of compound dose of 10 mg/kg in murine; format: functional
# Mus musculus [10] = experiment: Percent inhibition of anti-DNA antibody was evaluated by ELISA technique as a measure of auto-immune disease after injection of compound dose of 100 mg/kg in murine; format: functional
# Mus musculus [11] = experiment: Percent inhibition of anti-DNA antibody was evaluated by ELISA technique as a measure of auto-immune disease after injection of compound dose of 3.2 mg/kg in MRL/1 mice; format: functional
# Mus musculus [12] = experiment: Percent inhibition of proteinuria by compound dose of 0.32 mg/kg given perorally to MRL/1 mice; format: functional; details: route oral
# Mus musculus [13] = experiment: Percent inhibition of proteinuria by compound dose of 1 mg/kg given perorally to MRL/1 mice; format: functional; details: route oral
# Mus musculus [14] = experiment: Percent inhibition of proteinuria by compound dose of 1 mg/kg given perorally to murine in chronic graft-versus-host-disease test; format: functional; details: route oral
# Mus musculus [15] = experiment: Percent inhibition of proteinuria by compound dose of 10 mg/kg given perorally to MRL/1 mice; format: functional; details: route oral
# Mus musculus [16] = experiment: Percent inhibition of proteinuria by compound dose of 10 mg/kg given perorally to murine in chronic graft-versus-host-disease test; format: functional; details: route oral
# Mus musculus [17] = experiment: Percent inhibition of proteinuria by compound dose of 3.2 mg/kg given perorally to MRL/1 mice; format: functional; details: route oral
# Mus musculus [18] = experiment: Percent inhibition of proteinuria by compound dose of 0.1 mg/kg given perorally to MRL/1 mice; format: functional; details: route oral
# Mus musculus [19] = experiment: Percent inhibition of proteinuria by compound dose of 0.1 mg/kg given perorally to murine in chronic graft-versus-host-disease test; format: functional; details: route oral
# Mus musculus [20] = experiment: Percent inhibition of anti-DNA antibody was evaluated by ELISA technique as a measure of auto-immune disease after injection of compound dose of 100 mg/kg in MRL/1 mice; format: functional
# Mus musculus [21] = experiment: Percent inhibition of anti-DNA antibody was evaluated by ELISA technique as a measure of auto-immune disease after injection of compound dose of 32 mg/kg in murine; format: functional
# Mus musculus [22] = experiment: Percent inhibition of proteinuria by compound dose of 1 mg/kg given perorally to MRL/1 mice; Inactive; format: functional, organism-based; design: dose 1 mg/kg
# Mus musculus [23] = experiment: Percent inhibition of proteinuria by compound dose of 100 mg/kg given perorally to MRL/1 mice; format: functional; details: route oral
# Mus musculus [24] = experiment: Percent inhibition of proteinuria by compound dose of 3.2 mg/kg given perorally to MRL/1 mice; Inactive; format: functional, organism-based; design: dose 3.2 mg/kg
# Mus musculus [25] = experiment: Percent inhibition of proteinuria by compound dose of 32 mg/kg given perorally to MRL/1 mice; format: functional; details: route oral
# Mus musculus [26] = experiment: Percent inhibition of anti-DNA antibody was evaluated by ELISA technique as a measure of auto-immune disease after injection of compound dose of 32 mg/kg in MRL/1 mice; format: functional
compound,measurement,setting,value
CN(C(=O)c1c(O)c2cc(Oc3ccccc3)ccc2n(C)c1=O)c1ccccc1,inhibition in vivo at 32 mg/kg,Mus musculus [1],26%
CSc1ccc2c(c1)c(O)c(C(=O)N(C)c1cccc(C(F)(F)F)c1)c(=O)n2C,inhibition in vivo at 32 mg/kg,Mus musculus [1],99%
COCn1c(=O)c(C(=O)N(C)c2ccccc2)c(O)c2cc(SC)ccc21,inhibition in vivo at 32 mg/kg,Mus musculus [1],78%
CSc1ccc2c(c1)c(O)c(C(=O)C1(c3ccccc3)CC1)c(=O)n2C,inhibition in vivo at 100 mg/kg,Mus musculus [2],29%
CSc1ccc2c(c1)c(O)c(S(=O)(=O)N(C)c1ccccc1)c(=O)n2C,inhibition in vivo at 32 mg/kg,Mus musculus [1],53%
COc1ccc(N(C)C(=O)c2c(O)c3cc(SC)ccc3n(C)c2=O)cc1,inhibition in vivo at 32 mg/kg,Mus musculus [1],100%
CSc1ccc2c(c1)c(O)c(C(=O)N(C)c1ccc(C)cc1)c(=O)n2C,inhibition in vivo at 32 mg/kg,Mus musculus [1],100%
CSc1ccc2c(c1)c(O)c(C(=O)N(C)C1CCCCC1)c(=O)n2C,inhibition in vivo at 32 mg/kg,Mus musculus [1],43%
CSc1ccc2c(c1)c(O)c(S(=O)(=O)Cc1ccccc1)c(=O)n2C,inhibition in vivo at 100 mg/kg,Mus musculus [2],-49%
CSc1ccc2c(c1)c(Cl)c(C(=O)N(C)c1ccccc1)c(=O)n2C,inhibition in vivo at 32 mg/kg,Mus musculus [1],-1%
CSc1ccc2c(c1)c(O)c(C(=O)N(C)c1ccccc1)c(=O)n2C,inhibition in vivo at 0.1 mg/kg,Mus musculus [3],49%
same,inhibition in vivo at 0.1 mg/kg,Mus musculus [4],41%
same,inhibition in vivo at 0.32 mg/kg,Mus musculus [5],69%
same,inhibition in vivo at 1 mg/kg,Mus musculus [6],76%
same,inhibition in vivo at 1 mg/kg,Mus musculus [7],50%
same,inhibition in vivo at 10 mg/kg,Mus musculus [8],93%
same,inhibition in vivo at 10 mg/kg,Mus musculus [9],88%
same,inhibition in vivo at 100 mg/kg,Mus musculus [10],94%
same,inhibition in vivo at 3.2 mg/kg,Mus musculus [11],88%
same,inhibition in vivo at 0.32 mg/kg,Mus musculus [12],100%
same,inhibition in vivo at 1 mg/kg,Mus musculus [13],100%
same,inhibition in vivo at 1 mg/kg,Mus musculus [14],82%
same,inhibition in vivo at 10 mg/kg,Mus musculus [15],100%
same,inhibition in vivo at 100 mg/kg,Mus musculus [2],100%
same,inhibition in vivo at 10 mg/kg,Mus musculus [16],100%
same,inhibition in vivo at 3.2 mg/kg,Mus musculus [17],100%
same,inhibition in vivo at 32 mg/kg,Mus musculus [1],100%
same,inhibition in vivo at 0.1 mg/kg,Mus musculus [18],100%
same,inhibition in vivo at 0.1 mg/kg,Mus musculus [19],66%
CSc1ccc2c(c1)c(N)c(C(=O)N(C)c1ccccc1)c(=O)n2C,inhibition in vivo at 32 mg/kg,Mus musculus [1],22%
CSc1ccc2c(c1)c(O)c(C(=O)N(C)c1ccc(F)cc1)c(=O)n2C,inhibition in vivo at 32 mg/kg,Mus musculus [1],100%
CSc1ccc2c(c1)c(O)c(C(=O)n1ccc3ccccc31)c(=O)n2C,inhibition in vivo at 100 mg/kg,Mus musculus [2],48%
CSc1ccc2nc(O)c(C(=O)N(C)c3ccccc3)c(O)c2c1,inhibition in vivo at 32 mg/kg,Mus musculus [1],88%
COc1c(C(=O)N(C)c2ccccc2)c(=O)n(C)c2ccc(SC)cc12,inhibition in vivo at 32 mg/kg,Mus musculus [1],94%
CSc1ccc2c(c1)c(S)c(C(=O)N(C)c1ccccc1)c(=O)n2C,inhibition in vivo at 32 mg/kg,Mus musculus [1],19%
CNc1c(C(=O)N(C)c2ccccc2)c(=O)n(C)c2ccc(SC)cc12,inhibition in vivo at 32 mg/kg,Mus musculus [1],83%
CSc1ccc2c(c1)c(O)c(C(=O)Nc1ccccc1)c(=O)n2C,inhibition in vivo at 32 mg/kg,Mus musculus [1],24%
CCN(C(=O)c1c(O)c2cc(SC)ccc2n(C)c1=O)c1ccccc1,inhibition in vivo at 32 mg/kg,Mus musculus [1],89%
CSc1ccc2c(c1)c(O)c(C(=O)N(C)c1ccccc1)c(=O)n2Cc1ccccc1,inhibition in vivo at 32 mg/kg,Mus musculus [1],-66%
CSc1ccc2c(c1)c(O)c(C(=O)N(C)c1ccccn1)c(=O)n2C,inhibition in vivo at 32 mg/kg,Mus musculus [1],65%
CN(C(=O)c1c(O)c2cc(Sc3ccccc3)ccc2n(C)c1=O)c1ccccc1,inhibition in vivo at 32 mg/kg,Mus musculus [1],100%
CCn1c(=O)c(C(=O)N(C)c2ccccc2)c(O)c2cc(SC)ccc21,inhibition in vivo at 32 mg/kg,Mus musculus [1],83%
CCSc1ccc2c(c1)c(O)c(C(=O)N(C)c1ccccc1)c(=O)n2C,inhibition in vivo at 32 mg/kg,Mus musculus [1],100%
CN(C(=O)c1c(O)c2cc([S+](C)[O-])ccc2n(C)c1=O)c1ccccc1 (stereo not drawn),inhibition in vivo at 32 mg/kg,Mus musculus [1],100%
CSc1ccc2c(c1)c(O)c(C(=O)c1ccccc1)c(=O)n2C,inhibition in vivo at 100 mg/kg,Mus musculus [2],42%
CN(C(=O)c1c(O)c2cc(S(C)(=O)=O)ccc2n(C)c1=O)c1ccccc1,inhibition in vivo at 32 mg/kg,Mus musculus [1],0%
CN(C(=O)c1c(O)c2ccccc2n(C)c1=O)c1ccccc1 [ROQUINIMEX],inhibition in vivo at 1 mg/kg,Mus musculus [6],24%
same,inhibition in vivo at 10 mg/kg,Mus musculus [8],51%
same,inhibition in vivo at 10 mg/kg,Mus musculus [9],-19%
same,inhibition in vivo at 100 mg/kg,Mus musculus [20],76%
same,inhibition in vivo at 100 mg/kg,Mus musculus [10],37%
same,inhibition in vivo at 3.2 mg/kg,Mus musculus [11],35%
same,inhibition in vivo at 32 mg/kg,Mus musculus [21],36%
same,inhibition,Mus musculus [22],inactive
same,inhibition in vivo at 10 mg/kg,Mus musculus [15],60%
same,inhibition in vivo at 100 mg/kg,Mus musculus [23],100%
same,inhibition in vivo at 100 mg/kg,Mus musculus [2],98%
same,inhibition in vivo at 10 mg/kg,Mus musculus [16],9%
same,inhibition,Mus musculus [24],inactive
same,inhibition in vivo at 32 mg/kg,Mus musculus [25],100%
same,inhibition in vivo at 32 mg/kg,Mus musculus [1],86%
same,inhibition in vivo at 32 mg/kg,Mus musculus [26],52%
"C[C@]12C=CC(=O)C=C1CCC1[C@@H]2[C@@H](O)C[C@@]2(C)[C@H]1CC[C@]2(O)C(=O)CO (single isomer, unassigned) [PREDNISOLONE]",inhibition in vivo at 0.1 mg/kg,Mus musculus [4],39%
same,inhibition in vivo at 1 mg/kg,Mus musculus [7],39%
same,inhibition in vivo at 10 mg/kg,Mus musculus [9],52%
same,inhibition in vivo at 1 mg/kg,Mus musculus [14],75%
same,inhibition in vivo at 10 mg/kg,Mus musculus [16],100%
same,inhibition in vivo at 0.1 mg/kg,Mus musculus [19],53%
